Results from publication PMC3666759, “ATP Dependent Rotational Motion of Group II Chaperonin Observed by X-ray Single Molecule Tracking” (PLoS ONE, 2013).

Molecular target: T1, TKS1-Cpn (group II chaperonin from Thermococcus strain KS-1) (Thermococcus sp. JCM 11816, UniProt P61112, D263C/C366S)
T1 construct: gene thsA; full-length recombinant chaperonin, purified to homogeneity, double-ring homo-oligomer
Test: diffracted X-ray tracking (DXT), single molecule
Format: binding
Settings: 2 mM ATP; MOPS pH 7.0, 100 mM KCl, 5 mM MgCl2, about 60 °C; immobilised on gold, gold nanocrystal label

T1 sequence (P61112 whole entry D263C/C366S): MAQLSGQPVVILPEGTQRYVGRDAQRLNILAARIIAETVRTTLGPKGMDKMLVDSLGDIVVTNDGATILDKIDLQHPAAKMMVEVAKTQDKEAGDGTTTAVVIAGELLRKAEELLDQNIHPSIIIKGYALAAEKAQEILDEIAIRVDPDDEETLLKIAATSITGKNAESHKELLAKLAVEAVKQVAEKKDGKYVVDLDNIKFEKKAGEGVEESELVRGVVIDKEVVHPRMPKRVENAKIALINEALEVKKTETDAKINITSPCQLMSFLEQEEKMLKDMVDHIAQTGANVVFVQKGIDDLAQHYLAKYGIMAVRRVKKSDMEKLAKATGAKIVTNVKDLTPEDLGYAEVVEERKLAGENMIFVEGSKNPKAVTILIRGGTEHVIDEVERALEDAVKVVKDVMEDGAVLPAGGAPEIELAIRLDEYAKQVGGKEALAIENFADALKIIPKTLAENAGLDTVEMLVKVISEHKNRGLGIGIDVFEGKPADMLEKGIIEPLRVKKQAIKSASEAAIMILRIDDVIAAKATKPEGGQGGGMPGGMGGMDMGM

Nc1ncnc2c1ncn2[C@@H]1O[C@H](COP(=O)(O)OP(=O)(O)OP(=O)(O)O)[C@@H](O)[C@H]1O [ATP]
diffracted X-ray tracking (DXT), single molecule: Angular displacement in the χ direction was clearly activated by the addition of ATP.
